# Results as given in patent publication US20070122451A1, “Biogically non-degradable peptides, angiostensin converting enzyme inhibitor, drug and functional food” (Calpis Co., Ltd., priority 2003, published 2007).
# Peptide text beside a SMILES is read from it.
# Target: T1, ACE derived from bovine lung (Bos taurus, UniProt P12820)
# T1 construct: ACE derived from bovine lung; host or cells: bovine lung tissue
# T1 sequence (P12820 29-1306): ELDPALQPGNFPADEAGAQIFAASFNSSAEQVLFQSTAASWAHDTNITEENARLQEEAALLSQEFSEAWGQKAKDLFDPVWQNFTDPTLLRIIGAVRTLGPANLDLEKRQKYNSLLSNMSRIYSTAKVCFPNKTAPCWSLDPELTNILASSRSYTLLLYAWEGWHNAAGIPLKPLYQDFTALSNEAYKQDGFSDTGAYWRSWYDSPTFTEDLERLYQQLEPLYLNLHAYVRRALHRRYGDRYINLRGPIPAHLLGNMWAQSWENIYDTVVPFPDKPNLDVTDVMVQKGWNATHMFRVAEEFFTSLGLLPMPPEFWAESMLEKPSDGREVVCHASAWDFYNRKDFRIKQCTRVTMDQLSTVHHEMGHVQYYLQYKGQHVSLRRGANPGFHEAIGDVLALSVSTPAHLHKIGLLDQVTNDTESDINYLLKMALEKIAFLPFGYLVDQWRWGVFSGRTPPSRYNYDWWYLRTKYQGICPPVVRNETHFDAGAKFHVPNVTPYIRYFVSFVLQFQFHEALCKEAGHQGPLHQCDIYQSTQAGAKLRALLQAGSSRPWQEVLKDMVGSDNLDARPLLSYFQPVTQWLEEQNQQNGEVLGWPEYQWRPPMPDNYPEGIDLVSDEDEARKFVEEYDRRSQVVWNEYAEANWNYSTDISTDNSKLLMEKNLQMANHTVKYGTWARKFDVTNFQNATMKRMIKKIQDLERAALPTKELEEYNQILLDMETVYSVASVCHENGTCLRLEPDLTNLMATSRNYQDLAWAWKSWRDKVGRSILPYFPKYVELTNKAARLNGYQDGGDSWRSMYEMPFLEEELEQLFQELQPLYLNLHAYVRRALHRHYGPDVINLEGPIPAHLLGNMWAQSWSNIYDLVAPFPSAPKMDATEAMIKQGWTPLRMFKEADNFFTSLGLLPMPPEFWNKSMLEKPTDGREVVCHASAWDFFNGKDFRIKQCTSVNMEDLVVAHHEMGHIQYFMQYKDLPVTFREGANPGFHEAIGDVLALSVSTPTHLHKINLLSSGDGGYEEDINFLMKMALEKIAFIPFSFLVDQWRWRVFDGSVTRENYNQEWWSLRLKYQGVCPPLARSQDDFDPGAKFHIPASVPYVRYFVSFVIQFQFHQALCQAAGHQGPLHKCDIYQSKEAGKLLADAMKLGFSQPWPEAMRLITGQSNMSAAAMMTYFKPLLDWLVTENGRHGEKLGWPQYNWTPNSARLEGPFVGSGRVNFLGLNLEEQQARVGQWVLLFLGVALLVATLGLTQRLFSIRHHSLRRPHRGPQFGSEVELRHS
# Assay: Evaluation of ACE inhibitory activity (hippuryl-histidyl-leucine substrate, absorbance at 228 nm)
# Format: biochemical
# Settings: peptide concentration at which ACE inhibitory effect was 50%; 37° C., 30 minutes, pH 8.3 borate buffer
# Description: Solutions of each of these peptides at various concentrations were prepared, and measured for the ACE inhibitory activity in accordance with the method discussed below. The peptide concentration (μM) at which the ACE inhibitory effect was 50% was taken as IC50 value.
# <Evaluation of ACE Inhibitory Activity>
# ACE derived from bovine lung (manufactured by WAKO PURE CHEMICAL […], LTD.) was dissolved in a 0.1M borate buffer at pH 8.3 in an amount of 0.1 U, to obtain an ACE solution. […] Subsequently, the reaction was terminated by adding 250 μl of 1N hydrochloric acid (manufactured by WAKO PURE CHEMICAL […], LTD.). 1.7 ml of ethyl acetate (manufactured by WAKO PURE CHEMICAL […], LTD.) was then added, and stirred. 1.4 ml of the ethyl acetate layer was taken, placed in another tube, and evaporated at 120° C. for about 60 minutes to obtain a dried product. The dried product was dissolved in 1 ml of distilled water, and the absorbance at 228 nm of hippuric acid extracted with ethyl acetate was measured. As controls, absorbance was measured of a solution without the diluted solution and a solution without the diluted solution and the ACE solution. From the obtained absorbance, ACE inhibitory activity was calculated in accordance with the following formula. ACE inhibitory activity (%)=[(A−B)/A]×100 • A: (Absorbance of solution without diluted solution but with ACE solution)—(Absorbance of solution without diluted solution and ACE solution)
# B: (Absorbance of solution with diluted solution and ACE solution)—(Absorbance of solution with diluted solution but without ACE solution)
row,IC50,Compound
1,65.8 µM,NC(=O)CC[C@H](N)C(=O)N1CCC[C@H]1C(=O)O [Gln-Pro] (H-Gln-Pro-OH)
2,175 µM,N[C@@H](CCC(=O)O)C(=O)N1CCC[C@H]1C(=O)O [Glu-Pro] (H-Glu-Pro-OH; N-terminus and C-terminus assumed)

# Continued, compound first:
row,Compound,IC50
1,NC(N)=NCCC[C@H](N)C(=O)N1CCC[C@H]1C(=O)O [Arg-Pro] (H-Arg-Pro-OH),275 µM
2,CC[C@H](C)[C@H](N)C(=O)N1CCC[C@H]1C(=O)O [Ile-Pro] (H-Ile-Pro-OH; N-terminus and C-terminus assumed),444 µM
3,CSCC[C@H](N)C(=O)N1CCC[C@H]1C(=O)O [Met-Pro] (H-Met-Pro-OH; N-terminus and C-terminus assumed),135 µM
